In PubChem BioAssay AID1259407 (Chemical Carcinogenesis Research Information System (CCRIS), 2018):
The source made the active and inactive calls. The rule behind the calls is not given here.

Test system: CCRIS mutagenicity, Ames/micronucleus/aberration tests
Assay: CCRIS mutagenicity studies
[1] = Test System: AMES SALMONELLA TYPHIMURIUM, Strain/Indicator: TA98, Metabolic Activation: NONE, Method: STANDARD PLATE
[2] = Test System: AMES SALMONELLA TYPHIMURIUM, Strain/Indicator: TA98, Metabolic Activation: RAT, LIVER, S-9, AROCLOR 1254, Method: STANDARD PLATE
[3] = Test System: AMES SALMONELLA TYPHIMURIUM, Strain/Indicator: TA100, Metabolic Activation: NONE, Method: STANDARD PLATE
[4] = Test System: AMES SALMONELLA TYPHIMURIUM, Strain/Indicator: TA100, Metabolic Activation: RAT, LIVER, S-9, AROCLOR 1254, Method: STANDARD PLATE

For `CC(=O)OCN(C)N=O`, the mutagenic call (Test System: AMES SALMONELLA TYPHIMURIUM, Strain/Indicator: TA100, Metabolic Activation: HAMSTER, LIVER, CYTOSOL, Method: PREINCUBATION) was “active; positive”, the mutagenic call (Test System: AMES SALMONELLA TYPHIMURIUM, Strain/Indicator: TA100, Metabolic Activation: HAMSTER, LIVER, CYTOSOL, Method: STANDARD PLATE) was “active; positive” and the mutagenic call (Test System: AMES SALMONELLA TYPHIMURIUM, Strain/Indicator: TA104, Metabolic Activation: HAMSTER, LIVER, CYTOSOL, Method: PREINCUBATION) was “active; positive”. For the same compound, the mutagenic call (Test System: AMES SALMONELLA TYPHIMURIUM, Strain/Indicator: TA104, Metabolic Activation: HAMSTER, LIVER, CYTOSOL, Method: STANDARD PLATE) was “active; positive”, the mutagenic call (Test System: AMES SALMONELLA TYPHIMURIUM, Strain/Indicator: TA1535, Metabolic Activation: NONE, Method: PREINCUBATION) was “active; positive” and the mutagenic call (Test System: UDS RAT UROTHELIAL CELLS, Strain/Indicator: THY INCORP, Metabolic Activation: NONE) was “active; positive”.
For `NCC1CCC(C(=O)c2ccc(CCC(=O)O)cc2)CC1` (centres undefined), the mutagenic call [1] was “inactive; negative”, the mutagenic call [2] was “inactive; negative” and the mutagenic call [3] was “inactive; negative”. The mutagenic call [4] was “inactive; negative”, the mutagenic call (Test System: AMES SALMONELLA TYPHIMURIUM, Strain/Indicator: TA1535, Metabolic Activation: NONE, Method: STANDARD PLATE) was “inactive; negative” and the mutagenic call (Test System: AMES SALMONELLA TYPHIMURIUM, Strain/Indicator: TA1535, Metabolic Activation: RAT, LIVER, S-9, AROCLOR 1254, Method: STANDARD PLATE) was “inactive; negative”. For the same compound, the mutagenic call (Test System: AMES SALMONELLA TYPHIMURIUM, Strain/Indicator: TA1537, Metabolic Activation: NONE, Method: STANDARD PLATE) was “inactive; negative”, the mutagenic call (Test System: AMES SALMONELLA TYPHIMURIUM, Strain/Indicator: TA1537, Metabolic Activation: RAT, LIVER, S-9, AROCLOR 1254, Method: STANDARD PLATE) was “inactive; negative” and the mutagenic call (Test System: AMES SALMONELLA TYPHIMURIUM, Strain/Indicator: TA1538, Metabolic Activation: NONE, Method: STANDARD PLATE) was “inactive; negative”. For the same compound, the mutagenic call (Test System: AMES SALMONELLA TYPHIMURIUM, Strain/Indicator: TA1538, Metabolic Activation: RAT, LIVER, S-9, AROCLOR 1254, Method: STANDARD PLATE) was “inactive; negative”, the mutagenic call (Test System: E. COLI, Strain/Indicator: WP2 UVRA, Metabolic Activation: NONE, Method: STANDARD PLATE) was “inactive; negative” and the mutagenic call (Test System: E. COLI, Strain/Indicator: WP2 UVRA, Metabolic Activation: RAT, LIVER, S-9, AROCLOR 1254, Method: STANDARD PLATE) was “inactive; negative”.
With `CC(C)(C)Cl` the mutagenic call (Test System: Mouse lymphoma, Strain/Indicator: L5178Y (tk+/tk-), Metabolic Activation: None, Method: Suspension/plate) was “inactive; negative” and the mutagenic call (Test System: Mouse lymphoma, Strain/Indicator: L5178Y (tk+/tk-), Metabolic Activation: Rat, Liver, S-9, Aroclor 1254, Method: Suspension/plate) was “inactive; negative”.
With `C[C@@H]1CC2c3cccc4c3c(cn4C3CCCC3)C[C@H]2N(C)C1` (some centres undefined) the mutagenic call [4] was “active; positive”.
For `C[C@H]1CCC[C@@]2(C)CCCC[C@]12O`, the mutagenic call [1] was “inactive; negative”, the mutagenic call [2] was “inactive; negative” and the mutagenic call [3] was “inactive; negative”. For the same compound, the mutagenic call [4] was “inactive; negative”.
`O=c1cc2ccc3cccc4ccc([nH]1)c2c34` was tested, and the mutagenic call [1] was “active; positive”, the mutagenic call [2] was “active; positive” and the mutagenic call [3] was “inactive; negative”. The mutagenic call [4] was “active; positive”.
With `COCCc1ccc(OCC(O)CN(N=O)C(C)C)cc1` (centres undefined) the mutagenic call (Test System: UDS HUMAN HEPATOCYTES, Strain/Indicator: THY INCORP, Metabolic Activation: NONE, Method: AUTORADIOGRAPHY) was “active; positive” and the mutagenic call (Test System: UDS RAT HEPATOCYTES, Strain/Indicator: THY INCORP, Metabolic Activation: NONE, Method: AUTORADIOGRAPHY) was “active; positive”.
With `O=C1C=CC(=O)C(Cl)=C1` the mutagenic call (Test System: AMES SALMONELLA TYPHIMURIUM, Strain/Indicator: TA98, Metabolic Activation: NONE, Method: PREINCUBATION) was “inactive; negative”, the mutagenic call (Test System: AMES SALMONELLA TYPHIMURIUM, Strain/Indicator: TA98, Metabolic Activation: RAT, LIVER, S-9, PHENOBARBITAL AND 5,6-BENZOFLAVONE, Method: PREINCUBATION) was “inactive; negative” and the mutagenic call (Test System: AMES SALMONELLA TYPHIMURIUM, Strain/Indicator: TA100, Metabolic Activation: NONE, Method: PREINCUBATION) was “inactive; negative”. The mutagenic call (Test System: AMES SALMONELLA TYPHIMURIUM, Strain/Indicator: TA100, Metabolic Activation: RAT, LIVER, S-9, PHENOBARBITAL AND 5,6-BENZOFLAVONE, Method: PREINCUBATION) was “inactive; negative”, the mutagenic call (Test System: AMES SALMONELLA TYPHIMURIUM, Strain/Indicator: TA102, Metabolic Activation: NONE, Method: PREINCUBATION) was “inactive; negative” and the mutagenic call (Test System: AMES SALMONELLA TYPHIMURIUM, Strain/Indicator: TA102, Metabolic Activation: RAT, LIVER, S-9, PHENOBARBITAL AND 5,6-BENZOFLAVONE, Method: PREINCUBATION) was “inactive; negative”. The mutagenic call (Test System: AMES SALMONELLA TYPHIMURIUM, Strain/Indicator: TA104, Metabolic Activation: NONE, Method: PREINCUBATION) was “inactive; negative”, the mutagenic call (Test System: AMES SALMONELLA TYPHIMURIUM, Strain/Indicator: TA104, Metabolic Activation: RAT, LIVER, S-9, PHENOBARBITAL AND 5,6-BENZOFLAVONE, Method: PREINCUBATION) was “inactive; negative” and the mutagenic call (Test System: AMES SALMONELLA TYPHIMURIUM, Strain/Indicator: TA2637, Metabolic Activation: NONE, Method: PREINCUBATION) was “inactive; negative”. The mutagenic call (Test System: AMES SALMONELLA TYPHIMURIUM, Strain/Indicator: TA2637, Metabolic Activation: RAT, LIVER, S-9, PHENOBARBITAL AND 5,6-BENZOFLAVONE, Method: PREINCUBATION) was “inactive; negative”.
In the case of `Cc1cccc(Nc2cc(Cl)nc(SCC(=O)NCCO)n2)c1C`, the mutagenic call (Test System: AMES SALMONELLA TYPHIMURIUM, Strain/Indicator: TA98, Metabolic Activation: NONE) is reported as “inactive; negative”, the mutagenic call (Test System: AMES SALMONELLA TYPHIMURIUM, Strain/Indicator: TA98, Metabolic Activation: RAT, LIVER, S-9, AROCLOR 1254) is reported as “inactive; negative” and the mutagenic call (Test System: AMES SALMONELLA TYPHIMURIUM, Strain/Indicator: TA102, Metabolic Activation: NONE) is reported as “inactive; negative”. For the same compound, the mutagenic call (Test System: AMES SALMONELLA TYPHIMURIUM, Strain/Indicator: TA102, Metabolic Activation: RAT, LIVER, S-9, AROCLOR 1254) was “inactive; negative”, the mutagenic call (Test System: AMES SALMONELLA TYPHIMURIUM, Strain/Indicator: TA104, Metabolic Activation: NONE) was “inactive; negative” and the mutagenic call (Test System: AMES SALMONELLA TYPHIMURIUM, Strain/Indicator: TA104, Metabolic Activation: RAT, LIVER, S-9, AROCLOR 1254) was “inactive; negative”. The mutagenic call (Test System: UDS RAT HEPATOCYTES, Strain/Indicator: THY INCORP, Metabolic Activation: NONE, Method: LIQUID SCINTILLATION COUNTING) was “active; positive”.
`COc1ccc(CNC(=O)C(C)Br)cc1OC` (centres undefined) was tested, and the mutagenic call [3] was “active; positive”.
